Residue numbers refer to the chain shown, from its start.
Columns and labels:
Experiment in all cases: [3H]cholesterol saturation binding, Ni-NTA capture, scintillation counting
NPC2 (NPC2-His10) [1] = molecular target: T1, NPC2 (NPC2-His10) (Homo sapiens, UniProt P61916, V81A)
T1 sequence (P61916 20-151 V81A): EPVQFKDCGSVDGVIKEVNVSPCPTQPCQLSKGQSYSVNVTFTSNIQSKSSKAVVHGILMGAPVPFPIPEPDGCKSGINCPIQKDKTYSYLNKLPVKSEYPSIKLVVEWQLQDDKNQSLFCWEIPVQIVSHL

NPC2 (NPC2-His10) [2] = molecular target: T2, NPC2 (NPC2-His10) (Homo sapiens, UniProt P61916)
T2 sequence (P61916 20-151): T1 sequence (P61916 20-151 V81A) with A62V

NPC2 (NPC2-His10) [3] = molecular target: T3, NPC2 (NPC2-His10) (Homo sapiens, UniProt P61916, V81D)
T3 sequence (P61916 20-151 V81D): T1 sequence (P61916 20-151 V81A) with A62D

Kd (NPC2 (NPC2-His10) [1]): 80 nM
Kd (NPC2 (NPC2-His10) [2]): 81 nM
Kd (NPC2 (NPC2-His10) [3]): 72 nM
Compound: CC(C)CCC[C@@H](C)[C@H]1CC[C@H]2[C@@H]3CC=C4C[C@@H](O)CC[C@]4(C)[C@H]3CC[C@]12C [cholesterol]
